Reference: patent publication US20240343710A1, “HETEROCYCLIC COMPOUNDS AND METHODS OF USE THEREOF” (1cBio, Inc., priority 2023, published 2024)
pIC50: −log10 of the molar value. Structures can show the parent of a compound that is named as a salt. Where two headings read alike, the source gives them in different places.

How the values were obtained:
recombinant human PARP1 = recombinant human PARP1 (Homo sapiens, UniProt P09874); assay: PARP1 fluorescence polarization binding assay; conditions: GST-tagged PARP1 20 nM, PARP1-FL probe 3 nM
Chain of recombinant human PARP1 (P09874 whole entry): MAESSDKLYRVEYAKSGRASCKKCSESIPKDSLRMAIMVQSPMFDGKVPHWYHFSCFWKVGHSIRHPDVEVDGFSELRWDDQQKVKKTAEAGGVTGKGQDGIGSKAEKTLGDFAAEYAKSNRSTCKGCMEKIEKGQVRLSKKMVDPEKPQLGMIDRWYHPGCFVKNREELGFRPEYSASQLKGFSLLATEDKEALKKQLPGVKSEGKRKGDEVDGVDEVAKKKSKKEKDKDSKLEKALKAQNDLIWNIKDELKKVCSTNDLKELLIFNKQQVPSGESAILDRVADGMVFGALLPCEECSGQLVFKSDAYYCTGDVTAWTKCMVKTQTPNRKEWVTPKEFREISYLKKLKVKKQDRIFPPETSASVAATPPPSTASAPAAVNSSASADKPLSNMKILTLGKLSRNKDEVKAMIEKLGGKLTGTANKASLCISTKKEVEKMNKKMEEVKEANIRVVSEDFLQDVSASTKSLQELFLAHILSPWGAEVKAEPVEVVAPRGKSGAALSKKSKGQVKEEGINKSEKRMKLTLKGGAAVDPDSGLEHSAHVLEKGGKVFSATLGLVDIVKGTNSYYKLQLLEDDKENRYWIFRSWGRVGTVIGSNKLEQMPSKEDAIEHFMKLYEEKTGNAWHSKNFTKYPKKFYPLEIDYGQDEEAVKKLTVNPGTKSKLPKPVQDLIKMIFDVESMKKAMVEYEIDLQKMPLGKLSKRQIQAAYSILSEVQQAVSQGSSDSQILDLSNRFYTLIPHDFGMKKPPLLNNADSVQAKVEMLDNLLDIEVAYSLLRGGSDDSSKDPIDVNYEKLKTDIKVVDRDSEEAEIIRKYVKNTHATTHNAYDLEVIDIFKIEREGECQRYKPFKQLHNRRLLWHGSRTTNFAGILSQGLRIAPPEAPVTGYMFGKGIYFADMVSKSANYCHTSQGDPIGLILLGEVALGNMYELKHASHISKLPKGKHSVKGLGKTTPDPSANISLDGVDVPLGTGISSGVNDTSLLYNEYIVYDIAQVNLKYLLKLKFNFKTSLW
Method: In some embodiments, the biological assay is described in the Examples herein. In some embodiments, the biological assay measures PARP-1 binding by way of fluorescence polarization measurements. In some embodiments, binding of a test compound to recombinant human PARP-1 reduces the amount of binding of a fluorescent probe, and consequently reduces the detected level of fluorescence polarization. In some test compound stock solutions are prepared in a solvent, e.g., DMSO, and are serially diluted into a range of concentrations, e.g., 15 concentrations, 14 concentrations, 13 concentrations, 12 concentrations, 11 concentrations, 10 concentrations, 9 concentrations, 8 concentrations, 7 concentrations, 6 concentrations, or 5 concentrations, by a dilution factor, e.g., a 10-fold dilution factor, a 9-fold dilution factor, an 8-fold dilution factor, a 7-fold dilution factor, a 6-fold dilution factor, a 5-fold dilution factor, a 4-fold dilution factor, a 3-fold dilution factor, or a 2-fold dilution factor. In some embodiments, the serial dilutions, e.g., 100 nL of serial dilution, 90 nL of serial dilution, 80 nL of serial dilution, 70 nL of serial dilution, 60 nL of serial dilution, 50 nL of serial dilution, 30 nL of serial dilution, 20 nL of serial dilution, or 10 nL of serial dilution, are added to a multi-welled plate, e.g., a 1536-well plate, a 384-well plate, or a 96-well plate. In some embodiments, PARP-1, e.g., GST-tagged PARP-1, is diluted in assay buffer, e.g., 50 μL of assay buffer, 40 μL of assay buffer, e.g., 30 μL of assay buffer, 20 μL of assay buffer, 10 μL of assay buffer, or 5 μL of assay buffer, and is added to the plate. In some embodiments, the plate is centrifuged, e.g., at 1000 rpm for 1 min, and incubated, e.g., incubated for 30 minutes at room temperature (RT). In some embodiments, a fluorescent probe, e.g., 10 μL of 6 nM PARP1-FL (TOCRIS, Cat #6461), is diluted in an assay buffer and is added to the plate. In some embodiments, the final concentrations of PARP-1 and fluorescent probe are 20 nM and 3 nM, respectively, in a total volume of 20 μL. In some embodiments, the plate is centrifuged, e.g., at 1000 rpm for 1 minute, and the assay plate is incubated, e.g., for 4 h at RT. In some embodiments, the samples in each well are read using a plate reader, e.g., an Envision instrument using excitation=480 nm, and emission wavelength=FITC FP-P pol 535 nm & FITC FP-S pol 535 nm). In some embodiments, percent inhibition is calculated from mP values using Inhibition (%)=[1−(mPc−mPL)/(mPH−mPL)]×100%, where mPc, mPL, and mPH are the mP values of test compound, Low controls, and High controls, respectively. In some embodiments, binding IC50 values are calculated using XLFit (equation 201: y=A+((B−A)/(1+((x/C)^D))), where A=bottom, B=top, C=IC50, and D=slope) with a floating top and bottom for curves.
Compounds of the present disclosure were tested in a PARP1 fluorescence polarization binding assay at Pharmaron (Beijing, P.R. China). In this biochemical assay, binding of test compound to recombinant human PARP1 reduces the amount of binding of a fluorescent probe, and consequently reduces the detected level of fluorescence polarization. Test compound stock solutions were prepared in DMSO and then serially diluted into 10 concentrations by 3-fold dilution in a 384-well plate using a TECAN EVO200. Alternatively, a single concentration was prepared. 60 nL of each dilution was transferred to the plate using an Echo550 (Labcyte), and then 10 μL 40 nM GST-tagged PARP1 (BPS Bioscience, Cat #80501), diluted in assay buffer (50 mM Tris pH 8.0, 0.001% Triton X-100, 10 mM MgCl2, 150 mM NaCl), was added to the plate. After a centrifugation at 1000 rpm for 1 min, the assay plate was incubated for 30 min at RT. 10 μL 6 nM PARP1-FL (TOCRIS, Cat #6461), diluted using assay buffer, was then added to the plate. The final concentrations of PARP1 and PARP1-FL were 20 nM and 3 nM, respectively, in a total volume of 20 μL. […]

recombinant human PARP2 = recombinant human PARP2 (Homo sapiens, UniProt Q9UGN5); assay: PARP2 fluorescence polarization binding assay; conditions: read-out: PARP2 % inh at 10 μM
Chain of recombinant human PARP2 (Q9UGN5 whole entry): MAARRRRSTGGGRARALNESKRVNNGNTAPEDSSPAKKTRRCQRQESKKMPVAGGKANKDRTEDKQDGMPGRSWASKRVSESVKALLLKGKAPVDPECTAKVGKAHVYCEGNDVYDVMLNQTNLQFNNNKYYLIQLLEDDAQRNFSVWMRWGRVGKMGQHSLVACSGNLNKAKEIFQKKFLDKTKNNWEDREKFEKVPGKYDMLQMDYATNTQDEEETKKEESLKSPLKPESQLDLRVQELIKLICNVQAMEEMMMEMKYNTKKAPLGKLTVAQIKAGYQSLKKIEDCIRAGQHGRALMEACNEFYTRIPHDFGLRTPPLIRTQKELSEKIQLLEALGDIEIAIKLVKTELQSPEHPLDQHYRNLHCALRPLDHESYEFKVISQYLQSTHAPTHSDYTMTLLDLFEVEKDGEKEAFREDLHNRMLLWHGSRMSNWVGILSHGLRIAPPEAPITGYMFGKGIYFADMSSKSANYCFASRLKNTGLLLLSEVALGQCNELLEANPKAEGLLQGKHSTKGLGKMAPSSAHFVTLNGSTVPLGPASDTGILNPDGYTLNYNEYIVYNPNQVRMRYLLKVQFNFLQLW

[1] = test system: DLD-1 BRCA2(−/−) colorectal adenocarcinoma cells; assay: Cell viability assay (Cell Titer-Glo, 7 days), DLD-1 BRCA2(−/−); format: cell-based; conditions: Homo sapiens, 168 h, DLD-1 BRCA2(−/−) cells
From the text: (§1) In some embodiments, the biological assay measures the effects that compounds of the present disclosure may have on the viability of cells, e.g., the viability of cancer cells. In some embodiments, DLD-1 wild-type and DLD-1 BRCA2(−/−) colorectal adenocarcinoma cells, an isogenic pair of cell lines differing in the presence and absence, respectively, of both BRCA2 alleles, are used to measure the effect of the disclosed compounds on the viability of cancer cells. In some embodiments, the cells are harvested during the logarithmic growth period, counted, and seeded at a specified count in the wells of a 96- or 384-well cell culture plate. In some embodiments, after seeding, the cells are incubated, e.g., at 37° C., 5% CO2 overnight. In some embodiments, the cells are treated with compounds, e.g., with serially diluted test compounds at 8-11 concentrations within a desired concentration range, e.g., from 1 nM-10 μM, for the generation of dose-response curves. In some embodiments, the plate is further incubated, e.g., for another 3-7 days in a humidified incubator at 37° C. and 5% CO2. In some embodiments, cell viability is assessed by luminescence measurement after addition of Cell Titer-Glo reagent (Promega, Madison, Wis.) according to the manufacturer's instructions. In some embodiments, cell viability IC50 values are calculated using XLFit, equation 201: y=A+((B−A)/(1+((x/C)^D))), where A=bottom, B=top, C=IC50, and D=slope. In some embodiments, the effects of the test compounds on the viability of other cell lines such as MDA-MB-436, MDA-MB-231, SUM149PT, HCC1395, and UWB1.289 are determined in an analogous method.
(§2) Compounds of the present disclosure were tested for their effects on the viability of cancer cells. DLD-1 wild-type and DLD-1 BRCA2(−/−) colorectal adenocarcinoma cells, an isogenic pair of cell lines differing in the presence and absence, respectively, of both BRCA2 alleles, were used. The cells were harvested during the logarithmic growth period, counted, and seeded at 50 cells/well for DLD-1 wild-type and 200 cells/well for DLD-1 BRCA2(−/−) in a 384-well cell culture plate. After seeding, cells were incubated at 37° C., 5% CO2 overnight. Cells were treated with serially diluted test compounds at 10 concentrations (e.g., from 1.5 nM-30 μM) for generation of dose response curves, or at a single concentration. The plate was further incubated for another 7 days in a humidified incubator at 37° C. and 5% CO2. Cell viability was assessed by luminescence measurement after addition of Cell Titer-Glo reagent (Promega, Madison, Wis.) according to the manufacturer's instructions. Cell viability IC50 values were calculated using XLFit, equation 201. y=A+((B−A)/(1+((x/C)^D))), where A=bottom, B=top, C=IC50, and D=slope. IC50 values are shown in Table B and are presented in ranges, in which “+++”<300 nM, 300 nM≤“++”<3000 nM, and “+”≥3000 nM. Values for percent inhibition at 10 μM are also shown in Table B and are presented in ranges, in which “***”≥67%, 33%: “**”≤67%, and “*”<33%. Effects of the test compounds on the viability of other cell lines such as MDA-MB-436, MDA-MB-231, SUM149PT, HCC1395, and UWB1.289 are determined in an analogous method.

[2] = test system: DLD-1 wild-type colorectal adenocarcinoma cells; assay: Cell viability assay (Cell Titer-Glo, 7 days), DLD-1 wild-type; format: cell-based; conditions: Homo sapiens, 168 h, DLD-1 wild-type cells, read-out: DLD-1 wild-type % inh at 10 μM
From the text: as §1, §2

[3] = percent inhibition at 10 μM, fluorescence polarization, GST-tagged PARP2 20 nM, PARP1-FL probe 3 nM

| Structure (SMILES) | pIC50 (recombinant human PARP1) | inhibition at 10 µM (recombinant human PARP2; [3]) | pIC50 [1] | inhibition at 10 µM [2] | inhibition at 10 µM (recombinant human PARP2) |
| --- | --- | --- | --- | --- | --- |
| CCNC(=O)Nc1cc(CN2CCN(c3cnc4c(NC)nccc4c3)CC2)ccn1 [Compound 257, 1-ethyl-3-(4-((4-(8-(methylamino)-1,7-naphthyridin-3-yl)piperazin-1-yl)methyl)pyridin-2-yl)urea] | > 7.00 | 33 to 67% | 5.52 to 6.52 | < 33% |  |
| CCNC(=O)Nc1cc(CN2CCN(c3ccc(C#N)cc3F)CC2)ccn1 [Compound 276, 1-(4-((4-(4-cyano-2-fluorophenyl)piperazin-1-yl)methyl)pyridin-2-yl)-3-ethylurea trifluoroacetate] | > 7.00 |  | > 6.52 | < 33% | < 33% |
| CCNC(=O)Nc1cc(CN2CCN(c3ccc(C(=O)NC)nc3C)CC2)ccn1 [Compound 13, 5-(4-((2-(3-ethylureido)pyridin-4-yl)methyl)piperazin-1-yl)-N,6-dimethylpicolinamide formate] | > 7.00 |  | > 6.52 | < 33% | < 33% |
| CNC(=O)c1ccc(N2CCN(Cc3ccnc(NC(=O)NCCF)c3)CC2)c(C)n1 [Compound 261, 5-(4-((2-(3-(2-fluoroethyl)ureido)pyridin-4-yl)methyl)piperazin-1-yl)-N,6-dimethylpicolinamide] | > 7.00 | < 33% | > 6.52 | < 33% |  |
| CCNC(=O)Nc1cc(CN2CCN(c3ccc(C(=O)NC)nc3C(F)(F)F)CC2)ccn1 [Compound 21, 5-(4-((2-(3-ethylureido)pyridin-4-yl)methyl)piperazin-1-yl)-N-methyl-6-(trifluoromethyl)picolinamide trifluoroacetate] | > 7.00 |  | > 6.52 | < 33% | < 33% |

Now from value to compound, other results behind:

| pIC50 (recombinant human PARP1) | inhibition at 10 µM (recombinant human PARP2; [3]) | pIC50 [1] | Structure (SMILES) | inhibition at 10 µM [2] | inhibition at 10 µM (recombinant human PARP2) |
| --- | --- | --- | --- | --- | --- |
| > 7.00 | < 33% | > 6.52 | CNC(=O)c1ccc(N2CCN(Cc3ccnc(NC(=O)NC4CC4)c3)CC2)c(C)n1 [Compound 46, 5-(4-((2-(3-cyclopropylureido)pyridin-4-yl)methyl)piperazin-1-yl)-N,6-dimethylpicolinamide] | < 33% |  |
| > 7.00 | < 33% | > 6.52 | CCNC(=O)Nc1nccc(CN2CCN(c3ccc(C(=O)NC)nc3C)CC2)c1F [Compound 82, 5-(4-((2-(3-ethylureido)-3-fluoropyridin-4-yl)methyl)piperazin-1-yl)-N,6-dimethylpicolinamide] | < 33% |  |
| > 7.00 | < 33% | 5.52 to 6.52 | CCNC(=O)Nc1cc(CN2CCN(c3ccc(C(=O)NC)cc3F)CC2)ccn1 [Compound 31, 4-(4-((2-(3-ethylureido)pyridin-4-yl)methyl)piperazin-1-yl)-3-fluoro-N-methylbenzamide] | < 33% |  |
| > 7.00 | < 33% | > 6.52 | CCNC(=O)Nc1ncc(CN2CCN(c3ccc(C(=O)NC)nc3C)CC2)o1 [Compound 246, 5-(4-((2-(3-ethylureido)oxazol-5-yl)methyl)piperazin-1-yl)-N,6-dimethylpicolinamide] | < 33% |  |
| > 7.00 | < 33% | > 6.52 | [2H]C([2H])([2H])c1nc(C(=O)NC)ccc1N1CCN(Cc2ccnc(NC(=O)NCC)c2)CC1 [Compound 274, 5-(4-((2-(3-ethylureido)pyridin-4-yl)methyl)piperazin-1-yl)-N-methyl-6-(methyl-d3) picolinamide hemiformate] | < 33% |  |
| 5.52 to 7.00 | < 33% | 5.52 to 6.52 | CCCC(=O)Nc1cc(CN2CCN(c3ccc(C(=O)NC)nc3C)CC2)ccn1 [Compound 161, 5-(4-((2-butyramidopyridin-4-yl)methyl)piperazin-1-y)-N,6-dimethylpicolinamide] | < 33% |  |
| > 7.00 | < 33% | > 6.52 | CCNC(=O)Nc1cc(CN2CCN(c3ccc(NC(C)=O)nc3C)CC2)ccn1 [Compound 269, N-(5-(4-((2-(3-ethylureido)pyridin-4-yl)methyl)piperazin-1-yl)-6-methylpyridin-2-yl)acetamide] | < 33% |  |
